# Assay results published in PMC7031696 (Cell chemical biology, 2019).
# Where two headings read alike, the source gives them in different places.
# Key:
# [1] = system: Plasmodium falciparum 3D7-A10 parasites; experiment: Stage specificity assay (8-h exposure of synchronized stages, IC50^8h); type: cell-based; details: for IC50: Plasmodium falciparum
# [2] = system: 3D7-MR4 trophozoite parasite-infected RBCs; experiment: Metabolomic profiling (hydrophilic metabolite changes, UHPLC-MS); type: cell-based, Plasmodium falciparum
# [3] = system: asynchronous 3D7-A10 parasite cultures; experiment: Standard 72-h exposure asexual blood stage susceptibility assay (IC50^72h); type: cell-based, Plasmodium falciparum; details: Plasmodium falciparum, 3D7, 72 h, read-out: Overall (72hr assay) Mean IC50 (IC50^72h)
compound,measurement,setting,value
"OC(c1cc(C(F)(F)F)nc2c(C(F)(F)F)cccc12)C1CCCCN1 (stereo not drawn) [Mefloquine, reference compound]",Ratio lowest IC50 8hr/IC50 72hr,[1]; 3D7-A10,3.0
same,IC50,"[1]; 3D7, read-out: Early rings Mean IC50 (IC50^8h), 8-h exposure 0–8 hr, 3D7-A10, survival at 60 h",258 nM
same,IC50,"[1]; 3D7, read-out: Early trophozoites Mean IC50 (IC50^8h), 8-h exposure 16–24 hr, 3D7-A10, survival at 60 h",28.8 nM
same,IC50,"[1]; 3D7, read-out: IC50^8h values, text summary of Table S1",< 300 nM
same,IC50,"[1]; 3D7, read-out: Late rings Mean IC50 (IC50^8h), 8-h exposure 8–16 hr, 3D7-A10, survival at 60 h",147 nM
same,IC50,"[1]; 3D7, read-out: Late trophozoites Mean IC50 (IC50^8h), 8-h exposure 24–32 hr, 3D7-A10, survival at 60 h",29.5 nM
same,IC50,"[1]; 3D7, read-out: Schizonts Mean IC50 (IC50^8h), 8-h exposure 32–40 hr, 3D7-A10, survival at 60 h",138 nM
same,Stage of peak activity (Figure 6),[1]; period when the parasite was most susceptible (lowest IC50^8h),only in trophozoites
same,Peak Activity (Table S1),[1]; stage(s) with the lowest IC50^8h,Trophs
same,changes within the set of metabolites detected (low fold change group),"[2]; 10 × IC50^72h, 2.5 hr, trophozoites",did not induce major changes
same,Log2(fold changes) 3-phosphoglycerate,"[2]; metabolite 3-phosphoglycerate, log2 fold change",0.2359
same,Log2(fold changes) 4-Pyridoxic acid,"[2]; metabolite 4-Pyridoxic acid, log2 fold change",0.0740
same,Log2(fold changes) 4-aminobutyrate,"[2]; metabolite 4-aminobutyrate, log2 fold change",-0.0258
same,Log2(fold changes) 4-phosphopantetheine,"[2]; metabolite 4-phosphopantetheine, log2 fold change",0.0000
same,Log2(fold changes) 4-phosphopantothenate,"[2]; metabolite 4-phosphopantothenate, log2 fold change",0.0024
same,Log2(fold changes) 5-aminopentanoic acid,"[2]; metabolite 5-aminopentanoic acid, log2 fold change",0.0000
same,Log2(fold changes) 5-methyl-THF,"[2]; metabolite 5-methyl-THF, log2 fold change",0.0000
same,Log2(fold changes) 5-phosphoribosyl-1-pyrophosphate,"[2]; metabolite 5-phosphoribosyl-1-pyrophosphate, log2 fold change",0.0000
same,Log2(fold changes) 6-phospho-D-gluconate,"[2]; metabolite 6-phospho-D-gluconate, log2 fold change",-0.0079
same,Log2(fold change) HVDD,[2]; metabolite HVDD,0.0000
same,Log2(fold change) Hydroxyisocaproic acid,[2]; metabolite Hydroxyisocaproic acid,0.0000
same,Log2(fold change) IDP,[2]; metabolite IDP,0.0640
same,Log2(fold change) IMP,[2]; metabolite IMP,-0.0534
same,Log2(fold change) Inositol,[2]; metabolite Inositol,0.0000
same,Log2(fold change) Isopentyl-PP,[2]; metabolite Isopentyl-PP,0.0000
same,Log2(fold change) L-arginino-succinate,[2]; metabolite L-arginino-succinate,-0.3693
same,Log2(fold change) LD,[2]; metabolite LD,0.0808
same,Log2(fold change) Myristoyl/tetradecanoyl-CoA,[2]; metabolite Myristoyl/tetradecanoyl-CoA,0.0941
same,Log2(fold change) N-Acetyl-L-alanine,[2]; metabolite N-Acetyl-L-alanine,-0.2190
same,Log2(fold change) N-acetyl-L-ornithine,[2]; metabolite N-acetyl-L-ornithine,-0.0436
same,Log2(fold change) N-acetyl-glucosamine-1/6-phosphate,[2]; metabolite N-acetyl-glucosamine-1/6-phosphate,0.0000
same,Log2(fold change) N-acetyl-glutamate,[2]; metabolite N-acetyl-glutamate,0.0134
same,Log2(fold change) N-acetyl-glutamine,[2]; metabolite N-acetyl-glutamine,0.0000
same,Log2(fold change) N-carbamoyl-L-aspartate,[2]; metabolite N-carbamoyl-L-aspartate,0.0293
same,Log2(fold change) NAD+,[2]; metabolite NAD+,-0.0636
same,Log2(fold change) NADH,[2]; metabolite NADH,0.0000
same,Log2(fold change) NADP+,[2]; metabolite NADP+,-0.0054
same,Log2(fold change) NADPH,[2]; metabolite NADPH,0.3297
same,Log2(fold change) O-acetyl-L-serine,[2]; metabolite O-acetyl-L-serine,0.0000
same,Log2(fold change) Octoluse 8/1P,[2]; metabolite Octoluse 8/1P,-0.0524
same,Log2(fold change) Octoluse Bisphosphate,[2]; metabolite Octoluse Bisphosphate,-0.1015
same,Log2(fold change) PD,[2]; metabolite PD,-0.1757
same,Log2(fold change) PE,[2]; metabolite PE,-0.0476
same,Log2(fold change) PEE,[2]; metabolite PEE,0.0186
same,Log2(fold change) PEEK,[2]; metabolite PEEK,0.1844
same,Log2(fold change) PVNF,[2]; metabolite PVNF,0.0025
same,Log2(fold change) Pyroglutamic acid,[2]; metabolite Pyroglutamic acid,-0.3976
same,Log2(fold change) Pyrophosphate,[2]; metabolite Pyrophosphate,0.0000
same,Log2(fold change) Ribose-5-phosphate,[2]; metabolite Ribose-5-phosphate,0.0147
same,Log2(fold change) S-adenosyl-L-homocysteine,[2]; metabolite S-adenosyl-L-homocysteine,0.1505
same,Log2(fold change) S-adenosyl-L-methioninamine,[2]; metabolite S-adenosyl-L-methioninamine,0.0000
same,Log2(fold change) S-adenosyl-L-methionine,[2]; metabolite S-adenosyl-L-methionine,0.0000
same,Log2(fold change) S-methyl-5'-thioadenosine,[2]; metabolite S-methyl-5'-thioadenosine,0.0813
same,Log2(fold change) SD,[2]; metabolite SD,-0.0876
same,Log2(fold change) SDL,[2]; metabolite SDL,-0.0202
same,Log2(fold change) SID,[2]; metabolite SID,0.0863
same,Log2(fold change) Sedoheptulose bisphosphate,[2]; metabolite Sedoheptulose bisphosphate,0.1126
same,Log2(fold change) Thiamine pyrophosphate,[2]; metabolite Thiamine pyrophosphate,-0.0341
same,Log2(fold changes) UDP-D-glucose,"[2]; metabolite UDP-D-glucose, log2 fold change",0.0242
same,Log2(fold changes) UDP-D-glucuronate,"[2]; metabolite UDP-D-glucuronate, log2 fold change",0.0727
same,Log2(fold changes) UDP-N-acetyl-glucosamine,"[2]; metabolite UDP-N-acetyl-glucosamine, log2 fold change",-0.0280
same,Log2(fold changes) UDP,"[2]; metabolite UDP, log2 fold change",-0.6698
same,Log2(fold changes) UMP,"[2]; metabolite UMP, log2 fold change",-0.1565
same,Log2(fold changes) UTP,"[2]; metabolite UTP, log2 fold change",0.0862
same,Log2(fold change) hydroxyphenylpyruvate,[2]; metabolite hydroxyphenylpyruvate,0.0000
same,Log2(fold change) hydroxyproline/Aminolevulinate,[2]; metabolite hydroxyproline/Aminolevulinate,0.0725
same,Log2(fold change) hypoxanthine,[2]; metabolite hypoxanthine,0.0000
same,Log2(fold change) indole,[2]; metabolite indole,0.0000
same,Log2(fold change) inosine,[2]; metabolite inosine,-0.4356
same,Log2(fold change) isoleucine,[2]; metabolite isoleucine,-0.0171
same,Log2(fold change) lactate,[2]; metabolite lactate,-0.5208
same,Log2(fold change) leucine,[2]; metabolite leucine,-0.1746
same,Log2(fold change) lysine,[2]; metabolite lysine,-0.1798
same,Log2(fold change) malate,[2]; metabolite malate,-0.0910
same,Log2(fold change) maleic acid,[2]; metabolite maleic acid,-0.0602
same,Log2(fold change) methionine,[2]; metabolite methionine,-0.0405
same,Log2(fold change) myo-inositol,[2]; metabolite myo-inositol,-0.7507
same,Log2(fold change) nicotinamide mononucleotide,[2]; metabolite nicotinamide mononucleotide,-0.0942
same,Log2(fold change) nicotinate,[2]; metabolite nicotinate,-0.4821
same,Log2(fold change) ornithine,[2]; metabolite ornithine,0.0000
same,Log2(fold change) orotate,[2]; metabolite orotate,-0.4063
same,Log2(fold change) orotidine-5'-phosphate,[2]; metabolite orotidine-5'-phosphate,-0.7157
same,Log2(fold change) oxaloacetate,[2]; metabolite oxaloacetate,0.0000
same,Log2(fold change) p-aminobenzoate,[2]; metabolite p-aminobenzoate,0.0000
same,Log2(fold change) p-hydroxybenzoate,[2]; metabolite p-hydroxybenzoate,0.0000
same,Log2(fold change) pantothenate,[2]; metabolite pantothenate,0.0000
same,Log2(fold change) phenylalanine,[2]; metabolite phenylalanine,-0.1685
same,Log2(fold change) phenylpyruvate,[2]; metabolite phenylpyruvate,0.0000
same,Log2(fold change) phosphoenolpyruvate,[2]; metabolite phosphoenolpyruvate,0.1912
same,Log2(fold change) prephenate,[2]; metabolite prephenate,0.0000
same,Log2(fold change) proline,[2]; metabolite proline,-0.3045
same,Log2(fold change) pyridoxine,[2]; metabolite pyridoxine,-0.5037
same,Log2(fold change) pyruvate,[2]; metabolite pyruvate,-0.3898
same,Log2(fold change) riboflavin,[2]; metabolite riboflavin,-0.1185
same,Log2(fold change) ribose,[2]; metabolite ribose,-0.0288
same,Log2(fold change) ribose-phosphate,[2]; metabolite ribose-phosphate,-0.1512
same,Log2(fold change) ribulose-5-phosphate,[2]; metabolite ribulose-5-phosphate,0.0069
same,Log2(fold change) serine,[2]; metabolite serine,-0.0430
same,Log2(fold change) sn-glycerol-3-phosphate,[2]; metabolite sn-glycerol-3-phosphate,0.2262
same,Log2(fold change) succinate/Methylmalonic acid,[2]; metabolite succinate/Methylmalonic acid,0.1026
same,Log2(fold change) succinyl-CoA/methylmalonyl-CoA,[2]; metabolite succinyl-CoA/methylmalonyl-CoA,0.0000
same,Log2(fold change) taurine,[2]; metabolite taurine,-0.0060
same,Log2(fold change) thiamine,[2]; metabolite thiamine,-0.0860
same,Log2(fold change) threonine/homoserine,[2]; metabolite threonine/homoserine,-0.1129
same,Log2(fold change) thymidine,[2]; metabolite thymidine,0.0000
same,Log2(fold changes) thymine,"[2]; metabolite thymine, log2 fold change",0.0000
same,Log2(fold changes) trehalose-6-Phosphate,"[2]; metabolite trehalose-6-Phosphate, log2 fold change",0.0000
same,Log2(fold changes) tryptophan,"[2]; metabolite tryptophan, log2 fold change",0.0186
same,Log2(fold changes) tyrosine,"[2]; metabolite tyrosine, log2 fold change",0.0223
same,Log2(fold changes) uridine,"[2]; metabolite uridine, log2 fold change",0.0000
same,IC50,[3],9.8 nM
